Holding throughout (format): in vivo
One test has as its system Botrytis cinerea. Briefly: Test E: tomato Botrytis control on tomato seedlings. As to conditions: 250 ppm, 100 = 100% disease control, 0 = no control; for pest or weed control at 250 ppm: Botrytis cinerea, read-out: Test E disease control rating.
The next test concerns Plasmopara viticola. Briefly: Test D: grape downy mildew control on grape seedlings. As to conditions: 250 ppm, 100 = 100% disease control, 0 = no control; for pest or weed control at 250 ppm: Plasmopara viticola, read-out: Test D disease control rating.
For test [1], the system named is Erysiphe graminis f. sp. tritici. Briefly: Test G: wheat powdery mildew control on wheat seedlings. Conditions: 250 ppm, 100 = 100% disease control, 0 = no control; for pest or weed control at 250 ppm: Blumeria graminis, read-out: Test G disease control rating.
The subject of a further test is Phakopsora pachyrhizi. Nature of the test: Test A: Asian soybean rust control on soybean seedlings. Conditions: 250 ppm, soybean seedlings, 100 = 100% disease control, 0 = no control; for pest or weed control at 250 ppm: Phakopsora pachyrhizi, read-out: Test A disease control rating.
In test [2] the test system is Puccinia recondita f. sp. tritici. Nature of the test: Test B: wheat leaf rust control on wheat seedlings. Conditions: 250 ppm, wheat seedlings, 100 = 100% disease control, 0 = no control; for pest or weed control at 250 ppm: Puccinia recondita, read-out: Test B disease control rating.
Another test concerns Zymoseptoria tritici. Nature of the test: Test C: wheat leaf blotch control on wheat seedlings. As to conditions: 250 ppm, wheat seedlings, 100 = 100% disease control, 0 = no control; for pest or weed control at 250 ppm: Zymoseptoria tritici, read-out: Test C disease control rating.
The test system of a further test is Phytophthora infestans. Briefly: whole plant or invertebrate. As to conditions: tomato seedlings, 100 = 100% disease control, 0 = no control; for Test F disease control rating: 250 ppm; for pest or weed control at 250 ppm: Phytophthora infestans, in Solanum lycopersicum, read-out: Test F disease control rating, 250 ppm.

As for `COc1ccnc(C(=O)NC(C)C(=O)OC(C)c2ccc(C#C[Si](C)(C)C)cc2)c1O` (mixture of isomers) [Compound 69], the “Test E disease control rating” value in the test on Botrytis cinerea turned out to be 0%. Also, in the test with Plasmopara viticola, the “Test D disease control rating” value came out at 50%. For the same compound, in test [1], the “Test G disease control rating” value came to 0%. Moreover, in the test with Phakopsora pachyrhizi, the “Test A disease control rating” value is 100%. Besides, the “Test B disease control rating” value in test [2] was determined as 100%. In addition, the “Test C disease control rating” value in the test on Zymoseptoria tritici worked out at 94%. Moreover, the “Test F disease control rating” value with Phytophthora infestans is on record as 9%.
As for `COc1ccnc(C(=O)N[C@@H](C)C(=O)OC(C)c2ccc(F)cc2Cc2ccccc2)c1O` (single isomer, unassigned) [Compound 23], the “Test E disease control rating” value with Botrytis cinerea was found to be 0%. For the same compound, in the test on Plasmopara viticola, the “Test D disease control rating” value worked out at 44%. The “Test G disease control rating” value in test [1] is recorded as 0%. For the same compound, the “Test A disease control rating” value in the test with Phakopsora pachyrhizi came out at 100%. Besides, the “Test B disease control rating” value in test [2] was found to be 97%. Besides, the “Test C disease control rating” value in the test with Zymoseptoria tritici amounted to 95%. The “Test F disease control rating” value in the test on Phytophthora infestans is recorded as 0%.
As to `COc1ccnc(C(=O)NC(C)C(=O)OC(C)c2cccc(C3CC3)c2)c1O` (mixture of isomers) [Compound 158], the “Test E disease control rating” value with Botrytis cinerea worked out at 0%. Moreover, the “Test D disease control rating” value with Plasmopara viticola is 94%. In addition, the “Test G disease control rating” value in test [1] was 0%. Moreover, the “Test A disease control rating” value in the test with Phakopsora pachyrhizi worked out at 100%. Moreover, the “Test B disease control rating” value in test [2] worked out at 100%. Besides, in the test on Zymoseptoria tritici, the “Test C disease control rating” value was 73%. Besides, the “Test F disease control rating” value in the test on Phytophthora infestans was determined as 0%.
As to `COc1ccnc(C(=O)N[C@@H](C)C(=O)O[C@@H](C)c2ccc(C3CCCCC3)cc2)c1OC(C)=O` [Compound 95, N-[[3-(acetyloxy)-4-methoxy-2-pyridinyl]carbonyl]-L-alanine (1S)-1-(4-cyclohexylphenyl)ethyl ester], the pest or weed control at 250 ppm in the test with Botrytis cinerea was 0%; in the test with Plasmopara viticola, 1%; in test [1], 0%; in the test with Phakopsora pachyrhizi, 100%; in test [2] it was 100%; in the test with Zymoseptoria tritici, 100%. Further, in the test on Phytophthora infestans, the pest or weed control at 250 ppm was 0%.
For `COc1ccnc(C(=O)N[C@@H](C)C(=O)OC(C)c2ccc(CC3CCCCC3)cc2)c1OC(C)=O` (single isomer, unassigned) [Compound 128], the “Test E disease control rating” value in the test with Botrytis cinerea came out at 0%. The “Test D disease control rating” value in the test on Plasmopara viticola is given as 57%. Also, in test [1], the “Test G disease control rating” value is on record as 0%. The “Test A disease control rating” value in the test on Phakopsora pachyrhizi was 95%. For the same compound, in test [2], the “Test B disease control rating” value is recorded as 90%. Besides, the “Test C disease control rating” value in the test on Zymoseptoria tritici was 83%. Moreover, in the test with Phytophthora infestans, the “Test F disease control rating” value is 0%.
Turning to `COc1ccnc(C(=O)NC(C)C(=O)OC(C(C)C)C2CCCCC2)c1O` (mixture of isomers) [Compound 63], the “Test E disease control rating” value in the test on Botrytis cinerea was 16%. Further, the “Test D disease control rating” value in the test on Plasmopara viticola came to 81%. In test [1], the “Test G disease control rating” value is 0%. For the same compound, in the test with Phakopsora pachyrhizi, the “Test A disease control rating” value stood at 100%. In test [2], the “Test B disease control rating” value is recorded as 99%. Further, in the test on Zymoseptoria tritici, the “Test C disease control rating” value is reported as 79%. Moreover, in the test with Phytophthora infestans, the “Test F disease control rating” value amounted to 0%.
Consider `COc1ccnc(C(=O)NC(C)C(=O)OC(C)C2CCC(C(C)(C)C)CC2)c1O` (mixture of isomers) [Compound 176], for which the “Test E disease control rating” value in the test with Botrytis cinerea is 0%. The “Test D disease control rating” value in the test on Plasmopara viticola amounted to 14%. Besides, in test [1], the “Test G disease control rating” value is given as 0%. In addition, the “Test A disease control rating” value in the test with Phakopsora pachyrhizi is listed as 99%. For the same compound, the “Test B disease control rating” value in test [2] is reported as 89%. In addition, the “Test C disease control rating” value with Zymoseptoria tritici was 57%. Besides, in the test with Phytophthora infestans, the “Test F disease control rating” value came to 0%.
Regarding `COc1ccnc(C(=O)N[C@@H](C)C(=O)OC(C)C2CCCCC2)c1OC(C)=O` (mixture of isomers) [Compound 29, N-[[3-(acetyloxy)-4-methoxy-2-pyridinyl]carbonyl]-L-alanine 1-cyclohexylethyl ester], the pest or weed control at 250 ppm in the test on Botrytis cinerea was found to be 0%; in the test on Plasmopara viticola, 17%; in test [1], 0%; in the test with Phakopsora pachyrhizi it was 100%; in test [2] it was 99%; in the test on Zymoseptoria tritici it was 95%. Besides, in the test with Phytophthora infestans, the pest or weed control at 250 ppm came out at 33%.
As to `COc1ccnc(C(=O)NC(C)C(=O)OC(C)c2ccc(C#N)cc2)c1O` (mixture of isomers) [Compound 34], the “Test E disease control rating” value in the test with Botrytis cinerea was determined as 0%. In addition, the “Test D disease control rating” value in the test with Plasmopara viticola worked out at 58%. The “Test G disease control rating” value in test [1] was found to be 0%. Further, the “Test A disease control rating” value in the test on Phakopsora pachyrhizi was 0%. For the same compound, the “Test B disease control rating” value in test [2] came to 0%. Also, the “Test C disease control rating” value in the test with Zymoseptoria tritici is recorded as 13%. The “Test F disease control rating” value with Phytophthora infestans is listed as 0%.
Turning to `COc1ccnc(C(=O)N[C@@H](C)C(=O)OC(C)C2CCC(c3ccccc3)CC2)c1OC(C)=O` (mixture of isomers) [Compound 104, N-[[3-(acetyloxy)-4-methoxy-2-pyridinyl]carbonyl]-L-alanine 1-(4-phenylcyclohexyl)ethyl ester], the pest or weed control at 250 ppm is 0% in the test on Botrytis cinerea; 65% in the test with Plasmopara viticola; 0% in test [1]; 100% in the test on Phakopsora pachyrhizi; 100% in test [2]; 93% in the test on Zymoseptoria tritici. The pest or weed control at 250 ppm in the test with Phytophthora infestans was determined as 0%.
Regarding `COc1ccnc(C(=O)N[C@@H](C)C(=O)OC(C)c2ccc(C(C)(C)C)cc2)c1O` (some centres unmarked) [Compound 123], the “Test E disease control rating” value in the test with Botrytis cinerea is 0%. For the same compound, in the test on Plasmopara viticola, the “Test D disease control rating” value is recorded as 57%. The “Test G disease control rating” value in test [1] is given as 0%. Besides, the “Test A disease control rating” value with Phakopsora pachyrhizi worked out at 100%. Further, in test [2], the “Test B disease control rating” value was determined as 100%. The “Test C disease control rating” value in the test with Zymoseptoria tritici worked out at 84%. Also, the “Test F disease control rating” value in the test on Phytophthora infestans is 24%.
Turning to `COc1ccnc(C(=O)N[C@@H](C)C(=O)OC(C)c2ccc(CC3CCCCC3)cc2)c1OC(C)=O` (single isomer, unassigned) [Compound 129], the “Test E disease control rating” value in the test with Botrytis cinerea is given as 0%. Moreover, in the test with Plasmopara viticola, the “Test D disease control rating” value is listed as 32%. The “Test G disease control rating” value in test [1] turned out to be 0%. The “Test A disease control rating” value with Phakopsora pachyrhizi came to 100%. Moreover, the “Test B disease control rating” value in test [2] is recorded as 100%. Besides, in the test on Zymoseptoria tritici, the “Test C disease control rating” value turned out to be 91%. Further, in the test with Phytophthora infestans, the “Test F disease control rating” value was found to be 0%.
With `CCC(OC(=O)[C@H](C)NC(=O)c1nccc(OC)c1OC(C)=O)C1CCCCC1` (single isomer, unassigned) [Compound 168], the “Test E disease control rating” value with Botrytis cinerea is 0%. Moreover, the “Test D disease control rating” value in the test on Plasmopara viticola was 31%. In addition, in test [1], the “Test G disease control rating” value came out at 0%. The “Test A disease control rating” value in the test with Phakopsora pachyrhizi turned out to be 100%. In test [2], the “Test B disease control rating” value turned out to be 100%. Moreover, in the test with Zymoseptoria tritici, the “Test C disease control rating” value is given as 99%. Further, the “Test F disease control rating” value with Phytophthora infestans was 0%.
Consider `COc1ccnc(C(=O)NC(C)C(=O)OC(C)c2cccc(-n3ccc(C(F)(F)F)n3)c2)c1OC(C)=O` (mixture of isomers) [Compound 27], for which, in the test with Botrytis cinerea, the “Test E disease control rating” value is recorded as 0%. Besides, in the test with Plasmopara viticola, the “Test D disease control rating” value is listed as 38%. Also, the “Test G disease control rating” value in test [1] is 0%. The “Test A disease control rating” value in the test on Phakopsora pachyrhizi worked out at 98%. Moreover, in test [2], the “Test B disease control rating” value came to 99%. Further, the “Test C disease control rating” value with Zymoseptoria tritici came out at 81%. In addition, the “Test F disease control rating” value in the test with Phytophthora infestans stood at 0%.

The record behind these values is patent US20230131966A1, “FUNGICIDAL AMIDES” (FMC Corporation, priority 2020, published 2023).
